# In patent publication US20080051429A1, “USE OF 4-AMINO-PIPERIDINES FOR TREATING SLEEP DISORDERS” (priority 2006, published 2008):
# Tests used:
# Assay in all cases: R-SAT broad profiling
# Assay type in all cases: cell-based
# alpha 2A = molecular target: T1, alpha 2A (Homo sapiens, UniProt P08913); details: agonist; read-out: pEC50 or pIC50 (converted)
# T1 construct: expressed in transfected cells; host or cells: NIH3T3
# T1 sequence (P08913 1-465): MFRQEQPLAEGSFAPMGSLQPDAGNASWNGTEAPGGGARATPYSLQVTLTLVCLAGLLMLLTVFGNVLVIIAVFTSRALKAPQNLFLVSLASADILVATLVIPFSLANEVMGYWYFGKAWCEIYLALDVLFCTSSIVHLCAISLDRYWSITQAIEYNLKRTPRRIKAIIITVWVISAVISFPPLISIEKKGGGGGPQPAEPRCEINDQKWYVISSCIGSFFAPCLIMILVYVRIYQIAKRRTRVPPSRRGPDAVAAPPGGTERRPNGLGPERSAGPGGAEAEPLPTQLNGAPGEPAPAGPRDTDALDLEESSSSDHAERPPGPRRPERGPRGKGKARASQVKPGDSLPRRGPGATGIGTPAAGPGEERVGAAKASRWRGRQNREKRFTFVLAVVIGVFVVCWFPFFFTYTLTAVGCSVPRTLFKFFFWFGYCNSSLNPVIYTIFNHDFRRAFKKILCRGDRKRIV
# Experimental: (§1) The functional receptor assay, Receptor Selection and Amplification Technology (R-SAT), was used (with minor modifications from that previously described U.S. Pat. No. 5,707,798) to screen compounds for efficacy at the 5-HT2A receptor. Briefly, NIH3T3 cells were grown in 96 well tissue culture plates to 70-80% confluence. Cells were transfected for 12-16 hours with plasmid DNAs using superfect (Qiagen Inc.) as per manufacture's protocols. R-SAT's were generally performed with 50 ng/well of receptor and 20 ng/well of Beta-galactosidase plasmid DNA. All receptor and G-protein constructs used were in the pSI mammalian expression vector (Promega Inc) as described in U.S. Pat. No. 5,707,798. The 5HT2A receptor gene was amplified by nested PCR from brain cDNA using the oligodeoxynucleotides based on the published sequence (see Saltzman et. al. Biochem. Biophys. Res. Comm. 181:1469-78 (1991)). Large-scale transfections, cells were transfected for 12-16 hours, then trypsinized and frozen in DMSO. Frozen cells were later thawed, plated at 10,000-40,000 cells per well of a 96 well plate that contained drug. With both methods, cells were then grown in a humidified atmosphere with 5% ambient CO2 for five days. Media was then removed from the plates and marker gene activity was measured by the addition of the beta-galactosidase substrate ONPG (in PBS with 5% NP-40). The resulting colorimetric reaction was measured in a spectrophotometric plate reader (Titertek Inc.)at […]. All data were analyzed using the computer program XLFit (IDBSm). Efficacy is the percent maximal repression compared to repression by a control compound (ritanserin in the case of 5HT2A). pIC50 is the negative of the log(IC50), where IC50 is the calculated concentration in Molar that produces 50% maximal repression.
# (§2) The R-SAT assay (described above in example 289) was used to investigate the selectivity of 4-(4-Fluoro-benzyl)-3-(4-isobutoxy-benzyl)-8-methyl-1-oxa-3,8-diaza-spiro[4.5]decan-2-one.
# alpha 2B = molecular target: T2, alpha 2B (Homo sapiens, UniProt P18089); details: read-out: pEC50 or pIC50 (converted)
# T2 construct: expressed in transfected cells; host or cells: NIH3T3
# T2 sequence (P18089 1-450): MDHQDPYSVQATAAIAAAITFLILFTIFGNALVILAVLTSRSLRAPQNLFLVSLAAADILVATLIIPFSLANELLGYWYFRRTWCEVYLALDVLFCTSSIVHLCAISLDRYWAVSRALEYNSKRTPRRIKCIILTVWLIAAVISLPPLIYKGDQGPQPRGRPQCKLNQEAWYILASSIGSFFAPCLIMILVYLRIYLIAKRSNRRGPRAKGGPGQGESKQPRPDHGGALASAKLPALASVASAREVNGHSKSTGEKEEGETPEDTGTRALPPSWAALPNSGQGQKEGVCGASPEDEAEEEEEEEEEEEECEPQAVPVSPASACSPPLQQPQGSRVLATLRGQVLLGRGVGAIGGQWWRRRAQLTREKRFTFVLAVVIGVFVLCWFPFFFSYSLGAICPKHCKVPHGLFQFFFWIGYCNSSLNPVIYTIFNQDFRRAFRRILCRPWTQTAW
# Experimental: as §1, §2
# 5HT1E = 5HT1E (Homo sapiens, UniProt P28566); parameters: expressed in transfected cells; details: read-out: pEC50/pIC50 (converted)
# Experimental: as §1
# (§3) The R-SAT assay (described above in example 136) was used to investigate the selectivity of 2-(4-Methoxyphenyl)-N-(4-methylbenzyl)-N-(1-methylpiperidin-4-yl)acetamide hydrochloride.
# 5HT1B = 5HT1B (Homo sapiens, UniProt P28222); parameters: expressed in transfected cells; details: read-out: pEC50/pIC50 (converted)
# Experimental: as §1, §3
# 5HT2C = molecular target: T3, 5HT2C (Homo sapiens, UniProt P28335); parameters: expressed in transfected cells; details: read-out: pEC50/pIC50 (converted)
# T3 sequence (P28335 33-458): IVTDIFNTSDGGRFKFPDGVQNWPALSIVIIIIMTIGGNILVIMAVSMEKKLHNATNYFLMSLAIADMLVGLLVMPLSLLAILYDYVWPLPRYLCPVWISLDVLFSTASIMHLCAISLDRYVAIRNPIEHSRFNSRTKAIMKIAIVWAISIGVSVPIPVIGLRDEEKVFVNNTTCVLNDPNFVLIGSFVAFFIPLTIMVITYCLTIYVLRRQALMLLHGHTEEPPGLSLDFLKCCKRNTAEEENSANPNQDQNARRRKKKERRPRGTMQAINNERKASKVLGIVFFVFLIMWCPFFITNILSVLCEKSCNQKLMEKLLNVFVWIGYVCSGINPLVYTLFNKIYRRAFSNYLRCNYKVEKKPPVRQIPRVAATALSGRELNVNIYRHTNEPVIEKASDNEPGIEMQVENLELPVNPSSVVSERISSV
# Experimental: as §1, §3
# Sequence of 5HT1B (P28222 whole entry, species assumed): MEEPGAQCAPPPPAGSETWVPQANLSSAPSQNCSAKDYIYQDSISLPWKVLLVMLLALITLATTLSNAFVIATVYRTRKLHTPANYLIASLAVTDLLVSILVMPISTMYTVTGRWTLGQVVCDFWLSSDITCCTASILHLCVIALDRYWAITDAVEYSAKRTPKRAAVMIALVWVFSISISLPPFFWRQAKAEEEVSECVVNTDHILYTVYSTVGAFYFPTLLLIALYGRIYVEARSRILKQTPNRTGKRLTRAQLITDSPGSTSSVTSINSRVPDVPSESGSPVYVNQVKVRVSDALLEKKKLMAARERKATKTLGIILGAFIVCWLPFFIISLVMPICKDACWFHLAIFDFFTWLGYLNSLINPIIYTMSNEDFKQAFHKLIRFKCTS
# Sequence of 5HT1E (P28566 whole entry, species assumed): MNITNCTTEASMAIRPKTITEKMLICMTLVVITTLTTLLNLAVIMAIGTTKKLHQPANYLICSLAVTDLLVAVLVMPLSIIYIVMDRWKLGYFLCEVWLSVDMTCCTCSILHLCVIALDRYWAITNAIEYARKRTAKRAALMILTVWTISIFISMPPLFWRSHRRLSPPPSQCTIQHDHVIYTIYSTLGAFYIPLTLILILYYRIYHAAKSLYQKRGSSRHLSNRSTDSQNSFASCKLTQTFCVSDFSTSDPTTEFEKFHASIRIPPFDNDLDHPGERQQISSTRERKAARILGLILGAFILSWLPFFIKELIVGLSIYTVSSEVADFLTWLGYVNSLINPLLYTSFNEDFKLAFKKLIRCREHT
EC50 (5HT1E; agonist) [µM],IC50 (5HT1E; antagonist) [µM],EC50 (5HT1B; agonist) [µM],IC50 (5HT1B; antagonist) [µM],EC50 (5HT2C; agonist) [µM],IC50 (5HT2C; inverse agonist) [µM],SMILES,EC50 (alpha 2A) [µM],EC50 (alpha 2B; agonist) [µM],IC50 (alpha 2B; antagonist) [µM]
,,,,,,"CC(C)COc1ccc(CN2C(=O)OC3(CCN(C)CC3)C2Cc2ccc(F)cc2)cc1.Cl (racemic) [Example 69NLS75, 4-(4-Fluorobenzyl)-3-(4-isobutoxybenzyl)-8-methyl-1-oxa-3,8-diazaspiro[4.5]decan-2-one, hydrochloride]",> 3.16,> 3.16,> 3.16
> 3.16,> 3.16,> 3.16,> 3.16,> 3.16,0.1,"COc1ccc(CC(=O)N(Cc2ccc(C)cc2)C2CCN(C)CC2)cc1 [Example 50ELH27, 2-(4-Methoxyphenyl)-N-(4-methylbenzyl)-N-(1-methylpiperidin-4-yl)acetamide]",,,
